From patent US20190055267A1, “ORGANOTRIFLUOROBORATE MIMICS OF AMINO ACIDS AND USES THEREOF” (The United States of America, as represented by the …, priority 2015, published 2019)

What was measured:
U87MG human glioma cells = type: cell-based
HEK293 cells = experiment: Cell uptake of 18F-Leu-BF3 in HEK293 cells; type: cell-based; conditions: 120 min post incubation
UM22B cells = experiment: Efflux of radioactivity from cells preloaded with 18F-Leu-BF3; type: cell-based; conditions: UM22B cells loaded 120 min, 120 min post medium incubation
Method: ^18F-Leu-BF3 was first incubated with UM22B cells in PBS (phosphate buffered saline) for 120 min then was removed, followed by rapidly rinsing the cells with PBS three times. The cancer cells were incubated in medium essential medium for 10, 30, 60, and 120 min, and the residual radioactivity was measured (FIG. 16). The decreasing residual radioactivity is time-dependent, and most of the radioactive boramino acid was excreted from the cell in 90 min (less than 2% left at 120 min post medium incubation).
The radioactivity from efflux was further analyzed by re-injection into HPLC at 120 min (efflux: excreted from cell; influx: accumulated into cell). Only one peak was observed, and the elution time was corroborative to that for ^18F-Leu-BF3. The elution time here was 15 min, whereas in FIG. 1 the time was 12.5 min. After the data of FIG. 1 was obtained, maintenance was performed on the HPLC, after which the elution time of ^18F-Leu-BF3 on the HPLC was 15 min.

[1] = Metabolic stability in mouse plasma, HPLC analysis; type: in vitro ADME; conditions: mouse plasma at 37° C. for 30 and 120 min
Method: To further evaluate the metabolic stability of boramino acid, ^18F-Leu-BF3 was incubated with mouse plasma at 37° C. for 30 and 120 min. After incubation, most of the radioactivity was extracted from the plasma and followed by HPLC analysis.

[2] = In vivo metabolic stability, HPLC analysis of urine and blood samples; conditions: living animals
Method: To further evaluate its in vivo metabolic stability, ^18F-Leu-BF3 was also tested in living animals and followed by HPLC analysis of urine and blood samples.

UM22B xenograft = experiment: PET imaging and biodistribution in UM22B tumor-bearing mice; type: in vivo
Method: All imaging studies were performed as follows. PET scans were obtained and image analysis were performed using an Inveon small-animal PET scanner (Malvern, Pa., USA). About 3.7 MBq of ^18F-AA were administered via tail vein injection under isoflurane anesthesia. […] For dynamic acquisition, 60 min dynamic PET scans were acquired, followed by a late-time-point scans at 2 h after tracer injection. With the acute inflammation model, 10-min static PET images were acquired at 1 h and 2 h after injection. The images were reconstructed using a 3-dimensional ordered subset expectation maximum algorithm, and no correction was applied for attenuation or scatter. For each scan, regions of interest (ROIs) were drawn using vendor software (ASI Pro 5.2.4.0; Siemens Medical Solutions) on decay-corrected whole-body coronal images. The radioactivity concentrations (accumulation) within the tumor, heart, muscle, liver, brain, and kidneys were obtained from mean pixel values within the multiple ROI volumes and then converted to megabecquerel per milliliter. These values were then divided by the administered activity to obtain (assuming a tissue density of 1 g/mL) an image-ROI-derived percentage injected dose per gram (% ID/g).

inflammatory lesion = experiment: PET imaging in the acute inflammation model; type: in vivo, mice; conditions: compared with 18F-FDG (FIGS. 26-28)
Method: (§1) All imaging studies were performed as follows. PET scans were obtained and image analysis were performed using an Inveon small-animal PET scanner (Malvern, Pa., USA). About 3.7 MBq of ^18F-AA were administered via tail vein injection under isoflurane anesthesia. For static acquisition, 10-min static PET scans were acquired at 30, 60 and 120 min after injection. For dynamic acquisition, 60 min dynamic PET scans were acquired, followed by a late-time-point scans at 2 h after tracer injection. With the acute inflammation model, 10-min static PET images were acquired at 1 h and 2 h after injection. The images were reconstructed using a 3-dimensional ordered subset expectation maximum algorithm, and no correction was applied for attenuation or scatter. For each scan, regions of interest (ROIs) were drawn using vendor software (ASI Pro 5.2.4.0; Siemens Medical Solutions) on decay-corrected whole-body coronal images. The radioactivity concentrations (accumulation) within the tumor, heart, muscle, liver, brain, and kidneys were obtained from mean pixel values within the multiple ROI volumes and then converted to megabecquerel per milliliter. These values were then divided by the administered activity to obtain (assuming a tissue density of 1 g/mL) an image-ROI-derived percentage injected dose per gram (% ID/g).

UM22B xenografts [3] = experiment: PET imaging of 18F-Leu-BF3 co-injected with unlabeled Leu-BF3 (BNCT boron delivery); type: in vivo, mice
Method: as §1, with “ID/g). […]” for “ID/g).”

UM22B xenografts [4] = experiment: ICP analysis of boron in tissues after injection; type: in vivo, mice; conditions: 60 min after injection of 10 mg
Method: Tumor-bearing mice were sacrificed at 60 min after injection of 10 mg of Leu-BF3. UM22B xenografts are dissolve into nitric acid and the resulting solution are analyzed by ICP.

[5] = UM22B-bearing mice, 120 min after injection

## CC(C)C[C@H]([NH3+])[B-](F)(F)[18F] [^18F-Leu-BF3]
U87MG human glioma cells
  cell uptake: ~7.5 % AD
HEK293 cells
  cell uptake: 10.4 % AD
UM22B cells
  residual radioactivity left in cells: less than 2%
[1]
  defluoridation from boramino acid to boronic acid: almost negligible
[2]
  in vivo metabolic stability: neither participates in protein synthesis nor loses fluoride during in vivo circulation
UM22B xenograft; PET, tumor-bearing mice
  bone uptake: undetectable
UM22B xenograft; [5]
  Average Uptake (% ID/g), blood pool: 0.47 ± 0.12 % ID/g
  Average Uptake (% ID/g), hottest voxel cluster of tumor: 12.46 ± 3.0 % ID/g
  Average Uptake (% ID/g), kidney: 2.32 ± 0.39 % ID/g
  Average Uptake (% ID/g), liver: 0.83 ± 0.16 % ID/g
  Average Uptake (% ID/g), muscle: 0.09 ± 0.03 % ID/g
  Average Uptake (% ID/g), whole tumor region of interest: 6.72 ± 0.91 % ID/g
UM22B xenograft; comparison of 11C-Leu and 18F-Leu-BF3, one particular mouse (FIGS. 24 and 25)
  tumor uptake, peak voxel cluster value: ~6.5 % ID/g
UM22B xenograft; time-activity curves, UM22B tumor-bearing mice (FIGS. 21 and 22)
  tumor uptake, peak voxel cluster value: ~13 % ID/g
Inflammatory lesion
  uptake in inflammatory lesion: almost negligible
UM22B xenografts [3]; 60 min after injection of <1 μg, 200 μg, 1 mg, 5 mg and 25 mg, by PET imaging
  tumor uptake: ~10 % ID/g
UM22B xenografts [3]; 60 min post-injection, based on calculation
  boron concentration in tumor: up to 30 ppm
UM22B xenografts [4]; ICP analysis
  boron in tumor: 34.5 ppm
UM22B xenografts [4]; boron by ICP analysis
  tumor-to-brain ratio: 13.5
